Laboratory results: the NIST ThermoML archive (doi:10.1021/je030132i)
Numbers after ± are expanded uncertainties.

Legend:
[1] = 101.3 kPa, Liquid; for viscosity: Capillary tube (Ostwald / Ubbelohde) method; for mass density: Vibrating tube method
[2] = xn = mol fraction of the nth substance listed; details: 101.3 kPa, Liquid, x2 = 0; for viscosity: Capillary tube (Ostwald / Ubbelohde) method; for mass density: Vibrating tube method

| Compound | viscosity ([1]; 318.65 K) [mPa·s] | mass density ([1]; 318.65 K) [kg/m3] | viscosity ([1]; 323.15 K) [mPa·s] | mass density ([1]; 323.15 K) [kg/m3] | viscosity ([1]; 333.15 K) [mPa·s] | mass density ([1]; 333.15 K) [kg/m3] | viscosity ([1]; 343.15 K) [mPa·s] | mass density ([1]; 343.15 K) [kg/m3] | viscosity ([1]; 298.15 K) [mPa·s] | viscosity ([1]; 313.15 K) [mPa·s] | viscosity ([2]; 298.15 K) [mPa·s] | viscosity ([2]; 313.15 K) [mPa·s] | viscosity ([2]; 318.65 K) [mPa·s] | viscosity ([2]; 323.15 K) [mPa·s] | mass density ([2]; 323.15 K) [kg/m3] | viscosity ([2]; 333.15 K) [mPa·s] | mass density ([2]; 333.15 K) [kg/m3] | viscosity ([2]; 343.15 K) [mPa·s] | mass density ([2]; 343.15 K) [kg/m3] |
| --- | --- | --- | --- | --- | --- | --- | --- | --- | --- | --- | --- | --- | --- | --- | --- | --- | --- | --- | --- |
| CC(O)CNCC(C)O (stereo unspecified) [N-(2-hydroxypropyl)-2-hydroxy-1-propanamine] | 186.6 ± 4.6 | 988.22 ± 1 | 125.7 ± 2.3 | 984.9 ± 1 | 57.99 ± 0.62 | 977.3 ± 1 | 29.55 ± 0.33 | 969.58 ± 0.99 | – | – | – | – | – | – | – | – | – | – | – |
| O [water] | 0.595 ± 0.004 | – | 0.547 ± 0.004 | 988.04 ± 0.08 | 0.466 ± 0.003 | 983.12 ± 0.08 | 0.405 ± 0.003 | 977.77 ± 0.08 | 0.89 ± 0.006 | 0.653 ± 0.004 | – | – | – | – | – | – | – | – | – |
| O [water] + CC(O)CNCC(C)O | – | – | – | – | – | – | – | – | – | – | 0.89 ± 0.006 | 0.653 ± 0.004 | 0.595 ± 0.004 | 0.547 ± 0.004 | 988.04 ± 0.08 | 0.466 ± 0.003 | 983.12 ± 0.08 | 0.405 ± 0.003 | 977.77 ± 0.08 |
